# “And” between values parts separate entries of the source, which are not always exact repeats. Identical values can stand only once. Like-named read-outs stand apart in the source and are kept apart here.
# What was measured:
# [1] = test system: Enterococcus faecalis EFS.201 (ATCC 49452); assay type: cell-based
# In short: (§1)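 Broth microdilution per CLSI M7-A7 in Mueller Hinton broth supplemented with 50 mg/L calcium; 2-fold compound dilutions, 5×10^5 bacteria per well, DMSO ≤1% final, 18-20 h at 37° C with aeration (200 rpm). MIC (μg/mL) = lowest concentration with no visible turbidity (growth: visible turbidity or OD600 ≥0.1).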
# [2] = test system: Enterococcus faecalis EFS.312, Daptomycin resistant mutant (EFA); assay type: cell-based; settings: MHBc with 50 mg/L calcium, 18-20 hours at 37° C.
# In short: as §1
# [3] = test system: Enterococcus faecium EFM.14 (ATCC 6569); assay type: cell-based
# In short: as §1
# [4] = test system: Enterococcus faecium EFM.384, Daptomycin resistant mutant (14-A); assay type: cell-based; settings: MHBc with 50 mg/L calcium, 18-20 hours at 37° C.
# In short: as §1
# [5] = test system: Staphylococcus aureus SAU.278, Daptomycin resistant mutant (D10); assay type: cell-based; settings: MHBc with 50 mg/L calcium, 18-20 hours at 37° C.
# In short: as §1
# [6] = test system: Staphylococcus aureus SAU.399 (ATCC 43300), Methicillin and Oxacillin Resistant; assay type: cell-based
# In short: as §1
# [7] = test system: Staphylococcus aureus SAU.42 (ATCC 29213); assay type: cell-based
# In short: as §1
# [8] = test system: Clostridium difficile
# [9] = MHBc with 50 mg/L calcium, 18-20 hours at 37° C.
structure (smiles),measurement,setting,value
CCCCCCCCCCCCCCCOc1ccc(C(=O)N[C@@H](Cc2c[nH]c3ccccc23)C(=O)N[C@H](CC(N)=O)C(=O)N[C@@H](CC(=O)O)C(=O)N[C@@H]2C(=O)NCC(=O)N[C@@H](CCCN)C(=O)N[C@@H](CC(=O)O)C(=O)N[C@H](C)C(=O)N[C@@H](CC(=O)O)C(=O)NCC(=O)N[C@H](CO)C(=O)N[C@@H]([C@H](C)CC(=O)O)C(=O)N[C@@H](CC(=O)c3ccccc3N)C(=O)O[C@@H]2C)cc1 [Compound 40],Efs201 MIC,[1]; [9],4.0 µg/mL
same,Efs312 MIC,[2],8 µg/mL
same,Efm14 MIC,[3]; [9],32.0 µg/mL
same,Efm384 MIC,[4],32 µg/mL
same,Sa278 MIC,[5],16.00 µg/mL
same,Sa399 MIC,[6]; [9],4.000 µg/mL
same,Sa42 MIC,[7]; [9],4.00 µg/mL
same,C. diff MIC90,[8],32 µg/mL
"C[C@H](CC(=O)O)[C@@H]1NC(=O)[C@@H](CO)NC(=O)CNC(=O)[C@H](CC(=O)O)NC(=O)[C@@H](C)NC(=O)[C@H](CC(=O)O)NC(=O)[C@H](CCCN)NC(=O)CNC(=O)[C@@H](NC(=O)[C@H](CC(=O)O)NC(=O)[C@@H](CC(N)=O)NC(=O)[C@H](Cc2c[nH]c3ccccc23)NC(=O)c2ccc(-c3ccc(-c4ccccc4)cc3)s2)[C@@H](C)OC(=O)[C@H](CC(=O)c2ccccc2N)NC1=O [Compound 52, N-[5-(biphenyl-4-yl)thiophene-2-carbonyl]-L-tryptophyl-D-asparaginyl-L-α-aspartyl-L-threonylglycyl-L-ornithyl-L-α-aspartyl-D-alanyl-L-α-aspartylglycyl-D-seryl-(3R)-3-methyl-L-α-glutamyl-(αS)-α,2-diamino-γ-oxobenzenebutanoic acid (13→4)-lactone]",Efs201 MIC,[1]; [9],0.5 µg/mL
same,Efs312 MIC,[2],8 µg/mL and 16 µg/mL
same,Efm14 MIC,[3]; [9],1 µg/mL and 0.5 µg/mL
same,Efm384 MIC,[4],4 µg/mL
same,Sa278 MIC,[5],0.5 µg/mL
same,Sa399 MIC,[6]; [9],0.25 µg/mL
same,Sa42 MIC,[7]; [9],0.25 µg/mL
same,C. diff MIC90,[8],2 µg/mL
"CCCCCCCCCC(C)NC(=O)N[C@@H](Cc1c[nH]c2ccccc12)C(=O)N[C@H](CC(N)=O)C(=O)N[C@@H](CC(=O)O)C(=O)N[C@@H]1C(=O)NCC(=O)N[C@@H](CCCN)C(=O)N[C@@H](CC(=O)O)C(=O)N[C@H](C)C(=O)N[C@@H](CC(=O)O)C(=O)NCC(=O)N[C@H](CO)C(=O)N[C@@H]([C@H](C)CC(=O)O)C(=O)N[C@@H](CC(=O)c2ccccc2N)C(=O)O[C@@H]1C (single isomer, unassigned) [14 isomer II]",Efs201 MIC,[1]; ATCC 49452,0.5 µg/mL
same,Efs312 MIC,[2],16 µg/mL
same,Efm14 MIC,[3]; ATCC 6569,0.25 µg/mL
same,Efm384 MIC,[4],8 µg/mL
same,Sa278 MIC,[5],1 µg/mL
same,Sa399 MIC,[6]; ATCC 43300,0.25 µg/mL
same,Sa42 MIC,[7]; ATCC 29213,0.25 µg/mL
same,C. diff MIC90,[8],2 µg/mL
CCCCCCCCCCCCOc1ccc(C(=O)N[C@@H](Cc2c[nH]c3ccccc23)C(=O)N[C@H](CC(N)=O)C(=O)N[C@@H](CC(=O)O)C(=O)N[C@@H]2C(=O)NCC(=O)N[C@@H](CCCN)C(=O)N[C@@H](CC(=O)O)C(=O)N[C@H](C)C(=O)N[C@@H](CC(=O)O)C(=O)NCC(=O)N[C@H](CO)C(=O)N[C@@H]([C@H](C)CC(=O)O)C(=O)N[C@@H](CC(=O)c3ccccc3N)C(=O)O[C@@H]2C)cc1 [Compound 39],Efs201 MIC,[1]; [9],0.5 µg/mL
same,Efs312 MIC,[2],2 µg/mL
same,Efm14 MIC,[3]; [9],2.0 µg/mL
same,Efm384 MIC,[4],2 µg/mL
same,Sa278 MIC,[5],2.00 µg/mL
same,Sa399 MIC,[6]; [9],0.500 µg/mL
same,Sa42 MIC,[7]; [9],1.00 µg/mL
same,C. diff MIC90,[8],16 µg/mL
C[C@H](CC(=O)O)[C@@H]1NC(=O)[C@@H](CO)NC(=O)CNC(=O)[C@H](CC(=O)O)NC(=O)[C@@H](C)NC(=O)[C@H](CC(=O)O)NC(=O)[C@H](CCCN)NC(=O)CNC(=O)[C@@H](NC(=O)[C@H](CC(=O)O)NC(=O)[C@@H](CC(N)=O)NC(=O)[C@H](Cc2c[nH]c3ccccc23)NC(=O)Cc2ccc(-c3ccccc3)cc2)[C@@H](C)OC(=O)[C@H](CC(=O)c2ccccc2N)NC1=O [Compound 66],Efs201 MIC,[1]; [9],>32 µg/mL
same,Efs312 MIC,[2],>32 µg/mL
same,Efm14 MIC,[3]; [9],>32 µg/mL
same,Efm384 MIC,[4],>32 µg/mL
same,Sa278 MIC,[5],>32 µg/mL
same,Sa399 MIC,[6]; [9],8 µg/mL
same,Sa42 MIC,[7]; [9],8 µg/mL
same,C. diff MIC90,[8],8 µg/mL
CCCCCC1CCC(NC(=O)N[C@@H](Cc2c[nH]c3ccccc23)C(=O)N[C@H](CC(N)=O)C(=O)N[C@@H](CC(=O)O)C(=O)N[C@@H]2C(=O)NCC(=O)N[C@@H](CCCN)C(=O)N[C@@H](CC(=O)O)C(=O)N[C@H](C)C(=O)N[C@@H](CC(=O)O)C(=O)NCC(=O)N[C@H](CO)C(=O)N[C@@H]([C@H](C)CC(=O)O)C(=O)N[C@@H](CC(=O)c3ccccc3N)C(=O)O[C@@H]2C)CC1 (stereo partly drawn) [Compound 17],Efs201 MIC,[1]; [9],1 µg/mL
same,Efs312 MIC,[2],>32 µg/mL
same,Efm14 MIC,[3]; [9],1 µg/mL
same,Efm384 MIC,[4],16 µg/mL
same,Sa278 MIC,[5],0.25 µg/mL
same,Sa399 MIC,[6]; [9],0.25 µg/mL
same,Sa42 MIC,[7]; [9],0.25 µg/mL
same,C. diff MIC90,[8],1 µg/mL
CC(C)CCCCCCCCCC(=O)N[C@@H](Cc1c[nH]c2ccccc12)C(=O)N[C@H](CC(N)=O)C(=O)N[C@@H](CC(=O)O)C(=O)N[C@@H]1C(=O)NCC(=O)N[C@@H](CCCN)C(=O)N[C@@H](CC(=O)O)C(=O)N[C@H](C)C(=O)N[C@@H](CC(=O)O)C(=O)NCC(=O)N[C@H](CO)C(=O)N[C@@H]([C@H](C)CC(=O)O)C(=O)N[C@@H](CC(=O)c2ccccc2N)C(=O)O[C@@H]1C [Compound 10],Efs201 MIC,[1]; ATCC 49452,0.13 µg/mL
same,Efs312 MIC,[2],>32 µg/mL
same,Efm14 MIC,[3]; ATCC 6569,1 µg/mL
same,Efm384 MIC,[4],4 µg/mL
same,Sa278 MIC,[5],1 µg/mL
same,Sa399 MIC,[6]; ATCC 43300,0.25 µg/mL
same,Sa42 MIC,[7]; ATCC 29213,0.25 µg/mL
same,C. diff MIC90,[8],1 µg/mL
CCCCCCOc1ccc(C(=O)N[C@@H](Cc2c[nH]c3ccccc23)C(=O)N[C@H](CC(N)=O)C(=O)N[C@@H](CC(=O)O)C(=O)N[C@@H]2C(=O)NCC(=O)N[C@@H](CCCN)C(=O)N[C@@H](CC(=O)O)C(=O)N[C@H](C)C(=O)N[C@@H](CC(=O)O)C(=O)NCC(=O)N[C@H](CO)C(=O)N[C@@H]([C@H](C)CC(=O)O)C(=O)N[C@@H](CC(=O)c3ccccc3N)C(=O)O[C@@H]2C)cc1 [Compound 35],Efs201 MIC,[1]; [9],1.0 µg/mL
same,Efs312 MIC,[2],>32 µg/mL
same,Efm14 MIC,[3]; [9],2 µg/mL
same,Efm384 MIC,[4],32 µg/mL
same,Sa278 MIC,[5],4.00 µg/mL
same,Sa399 MIC,[6]; [9],0.5 µg/mL
same,Sa42 MIC,[7]; [9],0.5 µg/mL
same,C. diff MIC90,[8],2 µg/mL
CCCCCCC12CCC(C(=O)N[C@@H](Cc3c[nH]c4ccccc34)C(=O)N[C@H](CC(N)=O)C(=O)N[C@@H](CC(=O)O)C(=O)N[C@@H]3C(=O)NCC(=O)N[C@@H](CCCN)C(=O)N[C@@H](CC(=O)O)C(=O)N[C@H](C)C(=O)N[C@@H](CC(=O)O)C(=O)NCC(=O)N[C@H](CO)C(=O)N[C@@H]([C@H](C)CC(=O)O)C(=O)N[C@@H](CC(=O)c4ccccc4N)C(=O)O[C@@H]3C)(CC1)CC2 [Compound 23],Efs201 MIC,[1]; ATCC 49452,0.5 µg/mL
same,Efs312 MIC,[2],4 µg/mL
same,Efm14 MIC,[3]; ATCC 6569,0.5 µg/mL
same,Efm384 MIC,[4],4 µg/mL
same,Sa278 MIC,[5],1 µg/mL
same,Sa399 MIC,[6]; ATCC 43300,0.5 µg/mL
same,Sa42 MIC,[7]; ATCC 29213,0.50 µg/mL
same,C. diff MIC90,[8],0.5 µg/mL

# Source: patent publication US20150337013A1, “NOVEL ANTIBACTERIAL AGENTS FOR THE TREATMENT OF GRAM POSITIVE INFECTIONS” (priority 2008, published 2015)
